Data on one molecule can be found in PMC10827958, “Identification of a novel thermostable transaminase and its application in L-phosphinothricin biosynthesis” (Applied Microbiology and Biotechnology, 2024).

This assay deals with T1, PtTA.
T1 construct: PLP enzyme
Nature of the assay: initial rates, chiral HPLC of L-PPT, Michaelis-Menten fit. The assay is classed as biochemical, Zestomonas thermotolerans. The settings on record: PPO 1-100 mM; co-substrate L-amino acid 100 mM (L-Glu presumably); 0.1 mM PLP; 50 mM phosphate pH 8.0; 55 °C.

For the molecule `CP(=O)(O)CCC(=O)C(=O)O` [PPO, 4-(hydroxy(methyl)phosphoryl)-2-oxobutanoic acid], the Km is 35.9 mM.
